Source: ChEMBL document CHEMBL4334532, “Cytotoxic p-Terphenyls from a Marine-Derived Nocardiopsis Species” (J Nat Prod, 2019)
Calls of active or inactive are those of the source. No cut-off for these calls is given here.

Assays:
[1] = tested on: K562; assay: Cytotoxicity against human K562 cells assessed as inhibition of cell growth measured after 72 hrs by CCK-8 assay; format: functional, cell-based; conditions: K562, 72 h
[2] = Cytotoxicity against human P6C cells assessed as inhibition of cell growth measured after 72 hrs by MTT assay; format: functional, cell-based
[3] = tested on: L02; assay: Cytotoxicity against human LO2 cells assessed as inhibition of cell growth measured after 72 hrs by MTT assay; format: cell-based; conditions: L02, 72 h
[4] = tested on: MCF7; assay: Cytotoxicity against human MCF7 cells assessed as inhibition of cell growth measured after 72 hrs by MTT assay; format: functional, cell-based; conditions: MCF7, 72 h
[5] = tested on: A549; assay: Cytotoxicity against human A549 cells assessed as inhibition of cell growth measured after 72 hrs by MTT assay; format: functional, cell-based; conditions: A549, 72 h
[6] = tested on: 143B; assay: Cytotoxicity against human 143B cells measured after 72 hrs by Celltiter-Glo assay; format: functional, cell-based
[7] = Cytotoxicity against human SPC-A1 cells overexpressing maspin protein measured after 72 hrs by Celltiter-Glo assay; format: functional, cell-based; conditions: SPCA1, 72 h
[8] = tested on: NCI-N87; assay: Cytotoxicity against human NCI-N87 cells measured after 72 hrs by Celltiter-Glo assay; format: functional, cell-based; conditions: NCI-N87, 72 h
[9] = tested on: DU-145; assay: Cytotoxicity against human DU145 cells measured after 72 hrs by Celltiter-Glo assay; format: functional, cell-based; conditions: DU-145, 72 h
[10] = tested on: MDA-MB-468; assay: Cytotoxicity against human MDA-MB-468 cells measured after 72 hrs by Celltiter-Glo assay; format: functional, cell-based; conditions: MDA-MB-468, 72 h
[11] = tested on: NCI-H2228; assay: Cytotoxicity against human NCI-H2228 cells measured after 72 hrs by Celltiter-Glo assay; format: functional, cell-based; conditions: NCI-H2228, 72 h
[12] = tested on: HCC1954; assay: Cytotoxicity against human HCC1954 cells measured after 72 hrs by Celltiter-Glo assay; format: functional, cell-based; conditions: HCC1954, 72 h
[13] = tested on: Hep 3B2; assay: Cytotoxicity against human Hep3B cells measured after 72 hrs by Celltiter-Glo assay; format: functional, cell-based
[14] = tested on: A549; assay: Cytotoxicity against human A549 cells measured after 72 hrs by Celltiter-Glo assay; format: functional, cell-based; conditions: A549, 72 h
[15] = tested on: KARPAS-299; assay: Cytotoxicity against human KARPAS299 cells measured after 72 hrs by Celltiter-Glo assay; format: functional, cell-based; conditions: KARPAS-299, 72 h
[16] = tested on: U-87 MG; assay: Cytotoxicity against human U87 cells measured after 72 hrs by Celltiter-Glo assay; format: functional, cell-based, U-87MG ATCC
[17] = tested on: NCI-H1975; assay: Cytotoxicity against human NCI-H1975 cells harboring EGFR double L858R/T790M mutant measured after 72 hrs by Celltiter-Glo assay; format: functional, cell-based; conditions: NCI-H1975, 72 h
[18] = tested on: MCF7; assay: Cytotoxicity against human MCF7 cells measured after 72 hrs by Celltiter-Glo assay; format: functional, cell-based; conditions: MCF7, 72 h
[19] = tested on: NCI-H1299; assay: Cytotoxicity against human H1299 cells measured after 72 hrs by Celltiter-Glo assay; format: functional, cell-based; conditions: NCI-H1299, 72 h
[20] = tested on: B16-F10; assay: Cytotoxicity against mouse B16/F10 cells measured after 72 hrs by Celltiter-Glo assay; format: functional, cell-based; conditions: B16-F10, 72 h
[21] = tested on: A673; assay: Cytotoxicity against human A673 cells measured after 72 hrs by Celltiter-Glo assay; format: functional, cell-based; conditions: A673, 72 h
[22] = tested on: MDA-MB-231; assay: Cytotoxicity against human MDA-MB-231 cells measured after 72 hrs by Celltiter-Glo assay; format: functional, cell-based; conditions: MDA-MB-231, 72 h
[23] = tested on: BT-474; assay: Cytotoxicity against human BT474 cells measured after 72 hrs by Celltiter-Glo assay; format: functional, cell-based; conditions: BT-474, 72 h
[24] = tested on: HuCCT-1; assay: Cytotoxicity against human HuCCT1 cells measured after 72 hrs by Celltiter-Glo assay; format: functional, cell-based; conditions: HuCCT-1, 72 h
[25] = tested on: MKN-45; assay: Cytotoxicity against human MKN45 cells measured after 72 hrs by Celltiter-Glo assay; format: functional, cell-based; conditions: MKN-45, 72 h
[26] = tested on: A-431; assay: Cytotoxicity against human A431 cells measured after 72 hrs by Celltiter-Glo assay; format: functional, cell-based; conditions: A-431, 72 h
[27] = tested on: HeLa; assay: Cytotoxicity against human HeLa cells; format: functional, cell-based
[28] = tested on: U-251; assay: Cytotoxicity against human U251 cells measured after 72 hrs by Celltiter-Glo assay; format: functional, cell-based; conditions: U-251, 72 h
[29] = tested on: HL-60; assay: Cytotoxicity against human HL60 cells measured after 72 hrs by Celltiter-Glo assay; format: functional, cell-based; conditions: HL-60, 72 h
[30] = tested on: K562; assay: Cytotoxicity against human K562 cells measured after 72 hrs by Celltiter-Glo assay; format: functional, cell-based; conditions: K562, 72 h
[31] = tested on: MV4-11; assay: Cytotoxicity against human MV4-11 cells measured after 72 hrs by Celltiter-Glo assay; format: functional, cell-based; conditions: MV4-11, 72 h
[32] = tested on: HCT-116; assay: Cytotoxicity against human HCT116 cells measured after 72 hrs by Celltiter-Glo assay; format: functional, cell-based; conditions: HCT-116, 72 h

| Structure (SMILES) | IC50 [6] [µM] | IC50 [7] [µM] | IC50 [8] [µM] | IC50 [9] [µM] | IC50 [10] [µM] | IC50 [11] [µM] | IC50 [12] [µM] | IC50 [13] [µM] | IC50 [14] [µM] | IC50 [15] [µM] | IC50 [16] [µM] | IC50 [17] [µM] | IC50 [19] [µM] | IC50 [20] [µM] | IC50 [21] [µM] | IC50 [23] [µM] | IC50 [24] [µM] | IC50 [25] [µM] | IC50 [26] [µM] | IC50 [28] [µM] | further results |
| --- | --- | --- | --- | --- | --- | --- | --- | --- | --- | --- | --- | --- | --- | --- | --- | --- | --- | --- | --- | --- | --- |
| COc1ccc(-c2c(OC)c(O)c(-c3ccc(OC)cc3)c3scnc23)cc1 | – | – | – | – | – | – | – | – | – | – | – | – | – | – | – | – | – | – | – | – | IC50 [1]: 0.77 µM; IC50 [2]: 9.4 µM; IC50 [3]: 17 µM; IC50 [4]: 6 µM; IC50 [5]: 5.1 µM |
| COC1=C(c2ccc(OC)cc2)C(=O)C=C(c2ccc(OC)cc2)C1=O | 5 | 2 | 1 | 0.52 | 1.1 | 0.94 | 0.48 | > 100 | 0.48 | > 100 | > 100 | 3.1 | 0.72 | 0.76 | 0.76 | 3.6 | 0.2 | 0.49 | > 100 | 4.7 | IC50 [18]: > 100 µM; IC50 [22]: 2 µM; Activity [27]: Active; IC50 [29]: 0.17 µM; IC50 [30]: 4.8 µM; IC50 [31]: 0.16 µM; IC50 [32]: 1.9 µM |
| COc1ccc(-c2c(OC)c(O)c(-c3ccc(OC)cc3)c3sc(CO)nc23)cc1 | 5.5 | > 100 | > 100 | > 100 | 2.8 | 1.7 | 0.1 | > 100 | 7.8 | > 100 | > 100 | > 100 | > 100 | > 100 | > 100 | 6 | > 100 | > 100 | 4.6 | > 100 | IC50 [18]: 18 µM; IC50 [22]: > 100 µM; IC50 [29]: 0.38 µM; IC50 [30]: 9 µM; IC50 [31]: 4 µM; IC50 [32]: > 100 µM |
| COc1ccc(-c2c3c(c(-c4ccc(OC)cc4)c(O)c2OC)SCC(=O)N3)cc1 | > 100 | > 100 | > 100 | > 100 | > 100 | > 100 | > 100 | > 100 | > 100 | > 100 | > 100 | > 100 | > 100 | > 100 | > 100 | > 100 | > 100 | > 100 | > 100 | > 100 | IC50 [18]: > 100 µM; IC50 [22]: > 100 µM; IC50 [29]: > 100 µM; IC50 [30]: > 100 µM; IC50 [31]: > 100 µM; IC50 [32]: > 100 µM |
| COc1cccc2c1C(=O)c1c(O)c3c(c(O)c1C2=O)C[C@@](O)(C(=O)CO)C[C@@H]3O[C@H]1C[C@H](N)[C@H](O)[C@H](C)O1 [DOXORUBICIN] | 0.1 | 0.18 | 0.047 | 0.051 | > 100 | 0.097 | 0.045 | 16 | 0.11 | 0.38 | 0.11 | 0.087 | 0.5 | 0.016 | 0.1 | 1.9 | 0.048 | 0.19 | 0.16 | 0.17 | IC50 [1]: 0.33 µM; IC50 [2]: 0.71 µM; IC50 [3]: 0.7 µM; IC50 [5]: 0.58 µM; IC50 [30]: 0.021 µM; IC50 [31]: 0.16 µM |
| COc1ccc(-c2cc(O)c(-c3ccc(OC)cc3)c(OC)c2OC)cc1 | 7.7 | 9.8 | > 100 | 1 | 0.67 | 5 | 2 | > 100 | 9.7 | > 100 | > 100 | 4.4 | > 100 | > 100 | 8.9 | > 100 | > 100 | 12 | > 100 | > 100 | IC50 [18]: 17 µM; IC50 [22]: 2 µM; IC50 [29]: 5 µM; IC50 [30]: 8.9 µM; IC50 [31]: 0.77 µM; IC50 [32]: > 100 µM |
| COc1ccc(-c2cc(O)c(-c3ccc(OC)cc3)c(OC)c2O)cc1 | – | – | – | – | – | – | – | – | – | – | – | – | – | – | – | – | – | – | – | – | IC50 [1]: > 40 µM; IC50 [2]: > 40 µM; IC50 [3]: > 40 µM; IC50 [4]: 30 µM; IC50 [5]: > 40 µM |
